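96-well plates; 48 h exposure; 5 concentrations. Endpoints by linear interpolation between flanking doses. Not reached: highest tested concentration assigned. At the GI50, growth is halved. TGI is the concentration that stops growth completely.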
Columns and labels:
Experiment in all cases: NCI anticancer screen, dose series, 48 h
[1] = tested on: 786-0 renal
[2] = tested on: A498 renal
[3] = tested on: A549 NSCLC
[4] = tested on: ACHN renal
[5] = tested on: BT-549 breast
[6] = tested on: CAKI-1 renal
[7] = tested on: CCRF-CEM leukemia
[8] = tested on: COLO 205 colon
[9] = tested on: DU-145 prostate
[10] = tested on: HCC-2998 colon
[11] = tested on: HCT-116 colon
[12] = tested on: HCT-15 colon
[13] = tested on: HL-60(TB) leukemia
[14] = tested on: HOP-62 NSCLC
[15] = tested on: HOP-92 NSCLC
[16] = tested on: HS 578T breast
[17] = tested on: HT29 colon
[18] = tested on: IGROV1 ovarian
[19] = tested on: K-562 leukemia
[20] = tested on: KM12 colon
[21] = tested on: LOX IMVI melanoma
[22] = tested on: M14 melanoma
[23] = tested on: MALME-3M melanoma
[24] = tested on: MCF7 breast
[25] = tested on: MDA-MB-231 breast
[26] = tested on: MDA-MB-435
[27] = tested on: MOLT-4 leukemia
[28] = tested on: NCI-H226 lung
[29] = tested on: NCI-H23 lung
[30] = tested on: NCI-H460 lung
[31] = tested on: NCI-H522 lung
[32] = tested on: NCI/ADR-RES ovarian
[33] = tested on: OVCAR-3 ovarian
[34] = tested on: OVCAR-4 ovarian
[35] = tested on: OVCAR-5 ovarian
[36] = tested on: OVCAR-8 ovarian
[37] = tested on: PC-3 prostate
[38] = tested on: RPMI-8226 leukemia
[39] = tested on: RXF 393 renal
[40] = tested on: SF-268 CNS
[41] = tested on: SF-295 CNS
[42] = tested on: SF-539 CNS
[43] = tested on: SK-MEL-2 melanoma
[44] = tested on: SK-MEL-28 melanoma
[45] = tested on: SK-MEL-5 melanoma
[46] = tested on: SK-OV-3 ovarian
[47] = tested on: SN12C renal
[48] = tested on: SNB-19 CNS
[49] = tested on: SNB-75 CNS
[50] = tested on: SR leukemia
[51] = tested on: SW-620 colon
[52] = tested on: T-47D breast
[53] = tested on: TK-10 renal
[54] = tested on: U251 CNS
[55] = tested on: UACC-257 melanoma
[56] = tested on: UACC-62 melanoma
[57] = tested on: UO-31 renal

O=C(NOCC1CC1)c1ccc(F)c(F)c1Nc1ccc(I)cc1Cl
GI50 [1]: 2700 nM
TGI [1]: > 35100 nM
GI50 [2]: 63.9 nM
TGI [2]: 492 nM
GI50 [3]: 1410 nM
TGI [3]: 13200 nM
GI50 [4]: 1130 nM
TGI [4]: > 39000 nM
GI50 [5]: 3390 nM
TGI [5]: > 100000 nM
GI50 [6]: 2750 nM
TGI [6]: > 100000 nM
GI50 [7]: 2990 nM
TGI [7]: 19100 nM
GI50 [8]: 70.4 nM
TGI [8]: 3540 nM
GI50 [9]: 4070 nM
TGI [9]: > 100000 nM
GI50 [10]: 178 nM
TGI [10]: 2690 nM
GI50 [11]: 641 nM
TGI [11]: 9060 nM
GI50 [12]: 1570 nM
TGI [12]: > 32700 nM
GI50 [13]: 190 nM
TGI [13]: 8260 nM
GI50 [14]: 2040 nM
TGI [14]: > 100000 nM
GI50 [15]: 92.7 nM
TGI [15]: 1180 nM
GI50 [16]: 4850 nM
TGI [16]: > 92000 nM
GI50 [17]: 112 nM
TGI [17]: 11100 nM
GI50 [18]: 1050 nM
TGI [18]: 5770 nM
GI50 [19]: 2550 nM
TGI [19]: > 35300 nM
GI50 [20]: 649 nM
TGI [20]: 7340 nM
GI50 [21]: 727 nM
TGI [21]: 13200 nM
GI50 [22]: 54.6 nM
TGI [22]: 505 nM
GI50 [23]: 22.8 nM
TGI [23]: 67.4 nM
GI50 [24]: 3110 nM
TGI [24]: 19100 nM
GI50 [25]: 672 nM
TGI [25]: 14700 nM
GI50 [26]: 298 nM
TGI [26]: > 55500 nM
GI50 [27]: 3350 nM
TGI [27]: 25600 nM
GI50 [28]: 2770 nM
TGI [28]: > 52100 nM
GI50 [29]: 782 nM
TGI [29]: 23000 nM
GI50 [30]: 2420 nM
TGI [30]: > 100000 nM
GI50 [31]: 1940 nM
TGI [31]: 8510 nM
GI50 [32]: 2850 nM
TGI [32]: > 47900 nM
GI50 [33]: 2620 nM
TGI [33]: 7540 nM
GI50 [34]: 1810 nM
TGI [34]: 17700 nM
GI50 [35]: 76.4 nM
GI50 [36]: 2320 nM
TGI [36]: 20600 nM
GI50 [37]: 3030 nM
TGI [37]: 16500 nM
GI50 [38]: 1970 nM
TGI [38]: 9480 nM
GI50 [39]: 2110 nM
TGI [39]: 8950 nM
GI50 [40]: 2820 nM
TGI [40]: > 100000 nM
GI50 [41]: 2630 nM
TGI [41]: 44600 nM
GI50 [42]: 2240 nM
TGI [42]: 9730 nM
GI50 [43]: 166 nM
TGI [43]: 2050 nM
GI50 [44]: 52.6 nM
TGI [44]: 812 nM
GI50 [45]: 1150 nM
TGI [45]: 5830 nM
GI50 [46]: 4350 nM
TGI [46]: > 100000 nM
GI50 [47]: 1630 nM
TGI [47]: > 100000 nM
GI50 [48]: 1380 nM
TGI [48]: 97300 nM
GI50 [49]: 2150 nM
TGI [49]: > 45200 nM
GI50 [50]: 3040 nM
TGI [50]: 12100 nM
GI50 [51]: 141 nM
TGI [51]: > 39300 nM
GI50 [52]: 3150 nM
TGI [52]: > 52300 nM
GI50 [53]: 1130 nM
TGI [53]: 18600 nM
GI50 [54]: 1550 nM
TGI [54]: 12200 nM
GI50 [55]: 54.9 nM
TGI [55]: 517 nM
GI50 [56]: 64 nM
TGI [56]: 1410 nM
GI50 [57]: 1230 nM
TGI [57]: 6620 nM
